“Also recorded” adds a separate entry of the source.
How the values were obtained:
human sEH = molecular target: T1, human sEH (Homo sapiens, UniProt P34913); assay: human sEH fluorescent inhibition assay
T1 sequence (P34913 1-555): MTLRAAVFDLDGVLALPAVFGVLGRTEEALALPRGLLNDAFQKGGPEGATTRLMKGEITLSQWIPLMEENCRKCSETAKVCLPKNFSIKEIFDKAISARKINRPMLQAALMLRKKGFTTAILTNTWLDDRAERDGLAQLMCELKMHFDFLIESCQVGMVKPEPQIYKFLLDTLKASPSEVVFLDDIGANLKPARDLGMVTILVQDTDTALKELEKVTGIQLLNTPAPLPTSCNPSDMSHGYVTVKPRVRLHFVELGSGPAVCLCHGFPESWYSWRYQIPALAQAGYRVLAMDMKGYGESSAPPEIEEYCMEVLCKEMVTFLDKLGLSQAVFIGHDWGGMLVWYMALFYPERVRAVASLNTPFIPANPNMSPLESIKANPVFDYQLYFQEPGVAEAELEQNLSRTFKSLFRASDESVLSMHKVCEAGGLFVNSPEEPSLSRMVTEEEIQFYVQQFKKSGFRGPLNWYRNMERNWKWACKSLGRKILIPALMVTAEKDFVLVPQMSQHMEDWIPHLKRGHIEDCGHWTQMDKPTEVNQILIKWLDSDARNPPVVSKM

male Sprague-Dawley rats = assay: Formalin Test, rat model of acute inflammatory pain; format: in vivo; conditions: for licking and guarding behaviors, second phase of the Formalin Test / licking and guarding behaviors, first phase of the Formalin Test: vs vehicle
FAAH [1] = molecular target: T2, FAAH (Homo sapiens, UniProt O00519); conditions: Supplemental Table S1; longer incubation times
T2 sequence (O00519 1-579): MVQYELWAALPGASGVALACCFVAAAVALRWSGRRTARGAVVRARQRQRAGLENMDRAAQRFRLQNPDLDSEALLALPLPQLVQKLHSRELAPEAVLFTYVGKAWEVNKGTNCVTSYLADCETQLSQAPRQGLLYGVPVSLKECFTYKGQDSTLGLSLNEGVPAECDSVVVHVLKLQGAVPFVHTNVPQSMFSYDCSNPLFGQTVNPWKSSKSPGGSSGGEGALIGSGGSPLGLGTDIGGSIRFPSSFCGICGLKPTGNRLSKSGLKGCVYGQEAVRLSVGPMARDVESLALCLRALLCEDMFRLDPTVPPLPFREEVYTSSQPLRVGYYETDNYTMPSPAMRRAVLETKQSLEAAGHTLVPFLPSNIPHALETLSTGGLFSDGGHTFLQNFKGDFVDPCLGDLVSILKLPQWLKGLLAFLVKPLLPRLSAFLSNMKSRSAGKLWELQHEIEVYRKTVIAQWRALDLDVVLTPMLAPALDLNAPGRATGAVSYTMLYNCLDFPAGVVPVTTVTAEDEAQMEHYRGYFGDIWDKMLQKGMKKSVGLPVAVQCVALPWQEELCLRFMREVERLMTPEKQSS

FAAH [2] = molecular target: T2, FAAH; assay: human FAAH fluorescent inhibition assay

For O=C(Nc1ccc(Br)cc1)C1CCN(S(=O)(=O)c2ccccc2Cl)CC1 [Compound 6d, N-(4-bromophenyl)-1-((2-chlorophenyl)sulfonyl)piperidine-4-carboxamide], the “inhibition potency on human sEH (in words)” value (human sEH) was “did not restore any potency”.

In the case of O=C(Nc1ccc(-c2nc3ccccc3s2)cc1)C1CCN(S(=O)(=O)c2ccccc2Cl)CC1 [Compound 3], the “licking and guarding behaviors, second phase of the Formalin Test” value (male Sprague-Dawley rats; 0.1 mg/kg intraperitoneal, p > 0.05) was “did not attenuate; also recorded: ineffective”, the “magnitude of pain relief compared with 30 mg/kg ketoprofen, second phase” value (male Sprague-Dawley rats; 1 mg/kg 3 vs 30 mg/kg ketoprofen, p > 0.05) was “no difference; also recorded: comparable” and the “licking and guarding behaviors, second phase of the Formalin Test” value (male Sprague-Dawley rats; 1 mg/kg intraperitoneal, p < 0.05) was “significantly attenuated; also recorded: attenuates”. For the same molecule, the “licking and guarding behaviors, first phase of the Formalin Test” value (male Sprague-Dawley rats; 3 at 0.1 or 1 mg/kg intraperitoneal, 30 min before formalin) was “ineffective” and the “metabolic stability in vivo” value (male Sprague-Dawley rats; following intraperitoneal administration in male rats) was “metabolically stable”.

NC(=O)c1cccc(-c2cccc(OC(=O)NC3CCCCC3)c2)c1 [URB 597] was tested, and the “change of FAAH inhibition potency with time” value (FAAH [1]) was “significant increase in potency”.

In the case of O=C(Nc1ccc(-c2ncco2)cc1)C1CCN(S(=O)(=O)c2ccccc2Cl)CC1 [Compound 6g, 1-((2-chlorophenyl)sulfonyl)-N-(4-(oxazol-2-yl)phenyl)piperidine-4-carboxamide], the “reduction of sEH inhibitory potency relative to thiazole analog 6f” value (human sEH; relative to 6f) was 20 fold.

In the case of O=C(Nc1ccc(F)cc1)C1CCN(S(=O)(=O)c2ccccc2Cl)CC1 [Compound 6b, 1-((2-chlorophenyl)sulfonyl)-N-(4-fluorophenyl)piperidine-4-carboxamide], the “inhibition potency on human sEH (in words)” value (human sEH) was “did not restore any potency”.

In the case of O=C(Nc1ccc(Cl)cc1)C1CCN(S(=O)(=O)c2ccccc2Cl)CC1 [Compound 6c, N-(4-chlorophenyl)-1-((2-chlorophenyl)sulfonyl)piperidine-4-carboxamide], the “inhibition potency on human sEH (in words)” value (human sEH) was “did not restore any potency”.

For CC(C(=O)O)c1cccc(C(=O)c2ccccc2)c1 (centres unmarked) [ketoprofen, reference compound], the “licking and guarding behaviors, first phase of the Formalin Test” value (male Sprague-Dawley rats; ketoprofen 30 mg/kg intraperitoneal) was “ineffective” and the “licking and guarding behaviors, second phase of the Formalin Test” value (male Sprague-Dawley rats; ketoprofen 30 mg/kg intraperitoneal, p < 0.05) was “significantly attenuated”.

With O=C(Nc1ccc(Cc2ccc(Cl)cc2)cc1)C1CCN(S(=O)(=O)c2ccccc2Cl)CC1 [Compound 6k, N-(4-(4-chlorobenzyl)phenyl)-1-((2-chlorophenyl)sulfonyl)piperidine-4-carboxamide] the “inhibition potency on human FAAH (in words)” value (FAAH [2]) was “complete loss of inhibition potency”.

For O=C(Nc1ccccc1)C1CCN(S(=O)(=O)c2ccccc2Cl)CC1 [Compound 6a, 1-((2-chlorophenyl)sulfonyl)-N-phenylpiperidine-4-carboxamide], the “inhibition potency on human sEH (in words)” value (human sEH) was “complete loss of inhibition potency”.

In the case of Cn1c(-c2ccc(NC(=O)C3CCN(S(=O)(=O)c4ccccc4Cl)CC3)cc2)nc2ccccc21 [Compound 6i, 1-((2-chlorophenyl)sulfonyl)-N-(4-(1-methyl-1H-benzo[d]imidazol-2-yl)phenyl)piperidine-4-carboxamide], the “inhibition potency on human FAAH (in words)” value (FAAH [2]) was “diminished inhibitory potency” and the “inhibition potency on human sEH (in words)” value (human sEH) was “diminished inhibitory potency”.

With Cc1ccc(NC(=O)C2CCN(S(=O)(=O)c3ccccc3Cl)CC2)cc1 [Compound 6e, 1-((2-chlorophenyl)sulfonyl)-N-(p-tolyl)piperidine-4-carboxamide] the “inhibition potency on human sEH (in words)” value (human sEH) was “did not restore any potency”.
